{"source": "patent US20080199858A1", "about": "“Method for Detecting Estrogen-Like Chemicals by Plant” (priority 2004, published 2008)", "target": "T1, chimeric estrogen receptor containing hERαLBD and LexA DBD (Homo sapiens, UniProt P03372)", "T1 construct": "expressed in transfected cells; host or cells: transgenic Arabidopsis thaliana (Columbia), Agrobacterium C58-mediated transformation, CaMV 35S promoter", "T1 sequence (P0A7C2 1-87, change not shown)": "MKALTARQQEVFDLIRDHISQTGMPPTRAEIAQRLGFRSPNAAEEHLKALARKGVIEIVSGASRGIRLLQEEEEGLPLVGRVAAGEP", "T1 sequence (P03372 311-547, change not shown)": "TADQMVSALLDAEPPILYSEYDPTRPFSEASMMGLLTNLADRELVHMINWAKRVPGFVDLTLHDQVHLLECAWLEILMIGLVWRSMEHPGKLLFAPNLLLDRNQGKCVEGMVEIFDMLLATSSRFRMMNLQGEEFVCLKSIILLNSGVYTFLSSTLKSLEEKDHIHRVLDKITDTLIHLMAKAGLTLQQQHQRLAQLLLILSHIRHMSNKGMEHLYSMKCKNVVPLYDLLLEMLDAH", "T1 sequence (Q15596 624-869, change not shown, further chain)": "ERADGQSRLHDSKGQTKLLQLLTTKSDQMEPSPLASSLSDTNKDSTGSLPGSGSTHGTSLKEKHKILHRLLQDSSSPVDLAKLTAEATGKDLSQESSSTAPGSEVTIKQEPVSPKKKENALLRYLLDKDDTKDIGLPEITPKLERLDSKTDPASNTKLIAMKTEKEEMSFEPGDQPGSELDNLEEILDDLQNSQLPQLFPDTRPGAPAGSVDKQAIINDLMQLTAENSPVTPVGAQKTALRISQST", "T1 sequence (P06492 413-490, change not shown, further chain)": "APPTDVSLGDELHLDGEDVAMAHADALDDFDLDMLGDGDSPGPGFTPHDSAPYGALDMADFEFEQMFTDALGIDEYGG", "type": "in vivo", "details": "T2 seeds on MS agar medium, grown for a week; FIG. 6", "method": "Seeds of T3 were sown on a MS agar medium containing 17β-estradiol (WAKO Pure Chemical Inds.). The expression of GUS gene was examined by GUS activity staining method and GUS activity assay method by the use of a transformed plant grown for a week.\nThe induction of reporter gene expression by estrogen in transformed Arabidopsis thaliana was performed by the following procedures. […] After that the transformed Arabidopsis thaliana was sprouted and grown in a bright place at 22° C. for specified days for the continuous exposure to estrogen.\nThe Gus activity assay method was performed in the following way. […] Twenty plants treated with estrogen were frozen in liquid nitrogen and were crushed into powder by a homogenizer. Then, the extraction buffer (50 mM NaH2PO4, 10 mM EDTA, 0.1% Triton-X-100, 0.1% N-sodium lauroyl sarcosinate, 10 mM β-mercaptoethanol) was added and soluble protein was extracted. 4-methylumbelliferyl-β-D-glucronide (4-MUG) was used for a substrate of GUS activity assay. The extracted protein solution was added with extraction buffer containing final 1 mM 4-MUG and was reacted at 37° C. for 1 hr. […] Also, protein concentration in the solution was measured and measured values obtained by fluorescent spectroscopy were standardized by the correction depending on the total protein in the protein solution. […]", "data": [{"smiles": "CC(C)(c1ccc(O)cc1)c1ccc(O)cc1", "note": "[BPA, bisphenol A]", "values": [{"measurement": "concentration from which expression of GUS gene responds / increases", "value": "> 100", "unit": "nM"}, {"measurement": "optimal concentration for the expression of GUS gene", "value": 100, "unit": "nM"}]}]}
